The nature of this data set: gradient 5% acetonitrile 3 min, to 50% in 2 min, to 85% in 15 min, held 3 min, 100 µL/min. To be noted: column: Zorbax Extend-C18 2.1 x 50 mm; eluents: water / acetonitrile, 0.1% formic acid. The procedure, abridged: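 Over 3 months, pure standards in mixtures of ~100 molecules were run by HPLC coupled to a quadrupole time-of-flight mass spectrometer in positive and negative ionization mode. The column was a Zorbax Extend-C18 (2.1 × 50 mm, 1.8 μm) at 100 μL/min, eluted with water and acetonitrile each holding 0.1% formic acid, with 40 μL dead and 900 μL dwell volumes. Retention time was determined from adduct peaks chosen by software and checked manually.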
Compound `COc1ccc(-c2cc(C(=O)NCC(c3ccc(C)o3)N(C)C)no2)cc1` (stereo not given) gave an RP-LC retention time of 684 s.

Compound `Cc1ccccc1-n1c(/C=C\c2ccccn2)nc2ccccc2c1=O` registered an RP-LC retention time of 948 s. Next, `N#Cc1cccc(CN2CCCC2c2nc(-c3ccccc3)n[nH]2)c1` (stereo not given): 616 s; `CC(C)n1c(=O)n(CC(=O)N2CCCc3ccccc32)c2cc(S(=O)(=O)N3CCCC3)ccc21`: 947 s. The compound `CCCC(=O)N1CCN(c2nc(CN3CCOCC3)cs2)CC1` came in with an RP-LC retention time of 580 s. Next, `CCN1C(=O)c2ccccc2Oc2ccc(C(=O)NCc3ccc(C)o3)cc21`: 910 s. The result for `CCC(C)NC(=O)Cn1nc2c3cc(-c4ccc(F)cc4)nn3ccn2c1=O` (stereo not given) reads 764 s. Next, `COc1ccccc1N=NNc1ccccc1OC`: 933 s.

Compound `CCN(CC)c1ncc2c(n1)CCC(C(=O)Nc1cccc(C(=O)OC)c1)C2` (stereo not given) showed an RP-LC retention time of 660 s. The compound `CCc1nn2c(CNC(=O)c3ccc(C(C)C)cc3)c(-c3ccccc3)nc2s1` registered an RP-LC retention time of 1080 s. Next, `Cc1cccc(NC(=O)CSc2cc(N3CCN(c4ccccc4F)CC3)ncn2)c1C`: 1130 s. Next, `O=C(Cn1cnc2c(-c3ccc(F)cc3)csc2c1=O)Nc1cc(F)ccc1F`: 967 s.

As for `COc1ccc(-c2noc(-c3nnn4c3COC(c3ccc(F)cc3)C4)n2)cc1` (stereo not given), the RP-LC retention time worked out at 1120 s. The result for `Cc1noc(C)c1S(=O)(=O)NCCc1noc(-c2ccccc2)n1` reads 848 s; that for `COc1ccc(NC(=O)Cn2c(C(C)C)nc3c(c2=O)CN(Cc2ccccc2)CC3)cc1`, 685 s. Next, `O=C(CCn1c(N2CCCC2)nc2ccsc2c1=O)NCc1ccccc1F`: 748 s.

As for `Cc1ccccc1Nc1c(-c2ccccc2)nc2cccc(C)n12`, the RP-LC retention time is 750 s.

In the case of `Cn1cnc(S(=O)(=O)N2CCC(Cc3nncn3Cc3ccccc3)C2)c1` (stereo not given), the RP-LC retention time amounted to 614 s.

`CCCc1nnc(C(=O)Nc2cccc(C(=O)NCCc3c[nH]c4ccc(Cl)cc34)c2)s1`: the RP-LC retention time came out at 981 s. The result for `O=C(NCCCc1ccccc1)c1ccc2c(c1)CCN2C(=O)C1CC1` reads 877 s; that for `Cn1c(=O)c(SCC(=O)NCc2ccccc2F)nc2ccccc21`, 785 s; that for `CCc1ccc(S(=O)(=O)N2CCC3(CC2)NCCN=C3NCc2ccccc2C)cc1`, 791 s. The result for `CCN1C(=O)COc2ccc(-c3nc(NC(=O)CC(C)C)sc3C)cc21` reads 962 s.

Take `O=C(NCCc1c[nH]c2ccccc12)c1cc2cccnc2n(Cc2ccccc2F)c1=O`: the RP-LC retention time was 1080 s.

With `O=C(NCCc1nc(-c2ccc3c(c2)OCO3)n[nH]1)c1cc(F)ccc1Cl`, the RP-LC retention time is 660 s.

For `CCN1c2cc(Cl)ccc2C(=O)NC12CCN(C(=O)Nc1ccc(OC)cc1)CC2`, the RP-LC retention time turned out to be 895 s. In turn, `CCOC(=O)N1CCN(c2ncnc3c2cnn3-c2cc(Cl)ccc2C)CC1` had an RP-LC retention time of 863 s. The result for `O=C(Cc1c[nH]c2ccccc12)NCCc1c[nH]c2ccc(F)cc12` reads 804 s; that for `C=CCn1c2ccccc2c2nnc(SC(CC)C(=O)Nc3nc(-c4ccccc4)cs3)nc21` (stereo not given), 1190 s.

Take `O=C(c1ccc2c(c1)OCO2)N1CCC2(CC1)NC(=O)N(Cc1ccc(Cl)cc1)C2=O`: the RP-LC retention time was found to be 811 s. `CCCC(=O)N1CCc2c([nH]c3ccccc23)C1c1cccc(OCC)c1` (stereo not given) registered an RP-LC retention time of 1150 s. The result for `O=C(CCc1ccc2cc[nH]c2c1)NCc1ccc(F)cc1` reads 808 s; that for `COc1ccccc1Oc1ccc(S(=O)(=O)NCc2ccco2)cc1`, 873 s; that for `CCc1cc(=O)n(CC(=O)NCc2ccc(F)cc2F)c(N)n1`, 812 s.

Consider `CCOC(=O)c1cc(S(=O)(=O)N2CCCC2C(=O)Nc2ccc(C)cc2C)cn1C` (stereo not given), for which the RP-LC retention time came to 957 s. Take `COc1ccc(NC(=O)c2ccc(Cl)s2)c2ccccc12`: the RP-LC retention time was determined as 920 s. Next, `CCOc1ccccc1NC(=O)c1cn2c(n1)CCCC2`: 657 s; `COc1ccc(F)cc1S(=O)(=O)N1C[C@@H]2C[C@H]1C[C@@H]2NC(=O)c1ccccc1`: 786 s; `O=S(=O)(c1ccccc1)N1CC2CN(S(=O)(=O)c3cccc(F)c3)CC(C1)O2`: 905 s. Next, `Clc1ccc(Cl)c(-c2ccc(CNCCCn3ccnc3)o2)c1`: 589 s. Next, `CC(C)CC(=O)N1CCC(COc2ccc(C(=O)NC3CC3)cc2)CC1`: 758 s; `O=C(CCNc1cnc2cnccn12)NCCC1=CCCCC1`: 626 s; `Cn1nnc2c(N3CCN(C(=O)C(C)(C)Oc4ccc(Cl)cc4)CC3)ncnc21`: 850 s. Regarding `CC(C)NC(=O)C1CCN(c2nc3ccc(-c4cncnc4)nc3s2)CC1`, the RP-LC retention time came to 703 s. The result for `COCCN1C(=O)c2ccccc2C(C(=O)Nc2ccc(OC)cc2)C12CCCC2` (stereo not given) reads 852 s. Next, `Cc1ccc2c(c1)N(C(=O)Cn1cnc3c(sc4nc(-c5ccccc5)ccc43)c1=O)CCO2`: 1130 s. The result for `Cc1ccc(OCc2nn3c(-c4ccoc4C)nnc3s2)cc1C` reads 1090 s; that for `CCOC(=O)c1cnc2nc(C)ccc2c1Nc1cc(F)cc(F)c1`, 736 s; that for `O=C(NCc1nnnn1C1CCCCC1)c1cccs1`, 715 s.

Take `CC(C)c1noc(C2(NC(=O)C3CCCC3)CCCCC2)n1`: the RP-LC retention time was 968 s. The result for `Cc1nc(-c2noc(-c3cccnc3)n2)cn1CC(=O)NC1CCCC1` reads 646 s; that for `O=c1c2sccc2n(Cc2nc(-c3ccc(F)cc3)no2)c(=O)n1Cc1ccc(F)cc1`, 1100 s. Next, `COc1cccc(-c2nc(-c3ccc(NS(=O)(=O)c4cccs4)cc3)no2)c1OC`: 1040 s; `CCn1nnc2c(Nc3cccc(C(C)=O)c3)ncnc21`: 686 s. Next, `Cc1nc(CNC(=O)C2CCN(C(=O)Nc3cccc(Br)c3)CC2)cs1`: 707 s; `Cc1cc(S(=O)(=O)N(C)CC2CCOCC2)ccc1Cl`: 963 s; `CC(C(=O)NCCc1c[nH]c2ccc(Cl)cc12)n1c2ccccc2c2cnn(C)c(=O)c21` (stereo not given): 930 s. `CCN1C(=O)c2cccc3c(NC(=O)CSc4ccc(Cl)cc4)ccc1c23` gave an RP-LC retention time of 861 s. On to `CC(=O)N(Cc1nn(C)c2c1CN(S(=O)(=O)c1cc(C)ccc1C)CC2)c1ccccc1`, for which the RP-LC retention time came to 856 s. Compound `COc1cc(C(=O)Nc2nc(-c3ccc4c(c3)NC(=O)CO4)cs2)cc(OC)c1OC` gave an RP-LC retention time of 824 s. The compound `COc1ccc(NC(=O)C2CCCN2S(=O)(=O)c2ccc3c(c2)CCCC(=O)N3)cc1OC` (stereo not given) displayed an RP-LC retention time of 688 s. The result for `COC(=O)c1cc(OCC(=O)Nc2cccc(Cl)c2)c2ccccc2n1` reads 821 s. The compound `Cc1nc2c(NC(=O)c3ccccn3)cccn2n1` had an RP-LC retention time of 763 s. Next, `Cc1cccc(NC(=O)CN2C(=O)CCc3cc(S(=O)(=O)N4CCCCC4C)ccc32)c1` (stereo not given): 848 s; `CCn1ccc(C(=O)N2CCC(c3noc(-c4ccncc4)n3)C2)n1` (stereo not given): 665 s; `CN1C(=O)C(CC(=O)NCc2nc3ccccc3n2C)=C2CCCCC21` (stereo not given): 600 s. The result for `N#Cc1ccccc1NC(=O)COc1ccc(Cl)cc1Cl` reads 719 s. For the compound `CSc1ccc(-c2nc3cccc(C)n3c2Nc2ccc3c(c2)OCO3)cc1`, the RP-LC retention time was 712 s. Next, `Cn1c(=O)n(CCN2CCOCC2)c(=O)c2c1nc1n2CCCN1C1CCCCC1`: 627 s; `Cc1cccc(CNC2=NCCNC23CCN(S(=O)(=O)c2ccccc2C)CC3)c1`: 752 s.

`O=C(Nc1ccccc1Br)c1cnc(-c2ccccc2)nc1-c1ccncc1` had an RP-LC retention time of 927 s. Consider `COC(=O)c1ccc(NC(=O)N2CCCC2c2ccc(OC)cc2)cc1` (stereo not given), for which the RP-LC retention time is 906 s.

The compound `O=C(c1cccs1)N1CCN(c2ccc(-c3noc(C4CCC4)n3)cc2)CC1` returned an RP-LC retention time of 1070 s. The result for `Cc1cccc(NC(=O)C2CCCN(S(=O)(=O)c3c[nH]c(C(=O)N4CCCC4)c3)C2)c1` (stereo not given) reads 589 s; that for `COc1cccc(NC(=O)N2CCC(c3cc(N)on3)CC2)c1`, 653 s. Next, `Cc1ccc(NC(=O)N2CCC(CN3CCCC(C)C3)CC2)cc1C` (stereo not given): 645 s. Next, `COc1ccc(Cc2nc3nccc(-c4cccc(OC)c4)n3n2)cc1`: 887 s; `O=C(NC1CCCC1)c1nc(-c2cn(-c3ccc(Cl)cc3)nn2)no1`: 837 s. For `O=C(NC1CCCC1)C1CCN(S(=O)(=O)c2cc(C(=O)N3CCCC3)cs2)CC1`, the RP-LC retention time turned out to be 644 s.

For `CC(C)c1nnc(NC(=O)C2CCN(C(=O)c3ccc(F)cc3)CC2)s1`, the RP-LC retention time is 727 s.

The record behind these values is the METLIN SMRT retention time set (Domingo-Almenara et al. 2019).
